Experiments:
[1] = test system: RANTES gene expression; test: RSV infection in cotton rats: RANTES gene transcripts in lung (qRT-PCR); type: in vivo, Sigmodon hispidus cotton rats
Procedure: (§1) RSV Infection in Cotton Rats
(§2) Male Sigmodon hispidus cotton rats between 6 and 8 weeks of age were infected with hRSV/A/Long (ATCC, Manassas, Va.; 10^5 pfu) in a volume of 0.1 mL of sucrose stabilizing media. Test compounds were dissolved in 100% DMSO (at 3.3, 10, 33 and 100 mg/mL), then diluted at 1:10 in isotonic saline to achieve 10% DMSO in all treatments. Formulations were then sonicated to produce suspensions. The resulting suspensions were administered intranasally (50 μL) by pipette 4 hr before infection (on day 0), and then on days 1, 2 and 3 post infection. Four days after RSV challenge, the animals were euthanised and the lungs were removed. The left lobe was used for viral titration via plaque assay and the lingular lobe for RSV/A/Long NS-1 qRT-PCR and cytokine qRT-PCR.
Total RNA was also extracted from homogenized lung tissue (RNeasy purification kit; Qiagen) and a sample (1 μg) was used to prepare cDNA using QuantiTect Reverse Transcription Kit (Qiagen). For real-time PCR reactions (RSV NS-1 and RANTES genes) the QuantiFast SYBR® Green PCR Kit (Qiagen) was used in a final volume of 25 μL, with final primer concentrations of 0.5 μM. […] Baseline cycles and cycle threshold (Ct) were calculated by the iQ5 software in the PCR Base Line Subtracted Curve Fit mode. […] The mRNA levels were expressed as the geometric mean±SEM for all animals in a group.

[2] = test system: hRSV/A/Long; test: RSV infection in cotton rats: virus titre in lung (plaque assay); type: in vivo, Sigmodon hispidus cotton rats; details: intranasal
Procedure: as §1, §2
The supernatant of lung homogenates were diluted 1:10 and 1:100 in Eagle (E)-MEM. Confluent HEp2 monolayers in 24-well plates were infected in duplicate (50 μL of sample per well) starting with undiluted (neat) samples followed by diluted homogenates. After incubation for 1 hr (37° C./5% CO2) wells were overlaid with 0.75% methylcellulose medium and plates replaced in the 37° C. incubator. After incubation (for 4 days), the overlay was removed, the cells fixed with 0.1% crystal violet stain (for 1 hr) and then rinsed and air-dried. Plaques were counted and viral titers were expressed as plaque forming units per gram (pfu·g^−1) of tissue.

[3] = test system: HEp2 cells; test: Cell viability: resazurin assay; type: cell-based, human; details: 5 days
Method in brief: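 Viability read-out: resazurin fluorescence (ex 545, em 590 nm) after 6 h, following 5-day compound incubation of HEp2 cells (37 °C, 5% CO2, 5% FBS, 0.5% DMSO final). Loss expressed as percentage of vehicle, negative if viability rose; CC50 derived from concentration-response curve where appropriate.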

[4] = test system: hRSV/A/Long; test: RSV infection in cotton rats: virus titre in lung (plaque assay); type: in vivo, Sigmodon hispidus cotton rats; details: for Virus titre in lung, Geometric mean: cotton rats, intranasal, day 4
[5] = Drug Conc 10 mg/mL, day 4, LOQ 2.3

SMILES: Cc1cnc(N2CC3(CCOCC3)C2)c(C(=O)Nc2ccc(C(=O)N3CCc4cc(C(=O)Nc5c(C)cccc5F)sc4-c4ccccc43)cc2)c1 [Example 5, N-(2-Fluoro-6-methylphenyl)-6-(4-(5-methyl-2-(7-oxa-2-azaspiro[3.5]nonan-2-yl)nicotinamido)benzoyl)-5,6-dihydro-4H-benzo[b]thieno[2,3-d]azepine-2-carboxamide]
- Effect on RANTES transcripts in lung (in words) [1]: dose-dependent inhibition
- Virus titre in lung, Geometric mean ([2]; Drug Conc 0.33 mg/mL, day 4): 4.7 log, PFU/lung
- Virus titre in lung, Median ([2]; Drug Conc 0.33 mg/mL, day 4): 4.7 log, PFU/lung
- Virus titre in lung, Median ([2]; Drug Conc 1.0 mg/mL, day 4): 4.5 log, PFU/lung
- Virus titre in lung, Median ([2]; Drug Conc 3.3 mg/mL, day 4, LOQ 2.3): <2.3^2 log, PFU/lung
- Virus titre in lung, Geometric mean [2, 5]: <2.3^2 log, PFU/lung
- Virus titre in lung, Median [2, 5]: <2.3^2 log, PFU/lung
- CC50 [3]: > 14 µM
- Effect on virus titre in the lungs (in words) ([4]; RSV A2 infected cotton rats): completely inhibited virus titre
- Virus titre in lung, Geometric mean ([4]; Drug Conc 1.0 mg/mL): 4.5 log, PFU/lung
- Virus titre in lung, Geometric mean ([4]; Drug Conc 3.3 mg/mL, LOQ 2.3): <2.3^2 log, PFU/lung
- Effect on virus titre in lung homogenates (in words) ([4]; hRSV/A/Long infected cotton rats on day4): potent dose-dependent inhibition of virus titre
